Reference: patent publication US12071441B2, “10-(di(phenyl)methyl)-4-hydroxy-8,9,9A,10-tetrahydro-7H-pyrrolo[1′,2′:4,5]pyrazino[1,2-b]pyridazine-3,5-dione derivatives and related compounds as inhibitors of the orthomyxovirus replication for treating influenza” (Novartis AG, priority 2018, dated 2024)

Assays:
Experiment in all cases: microbe, parasite or virus in culture
Format in all cases: cell-based
[1] = system: influenza A virus minigenome (PB2, PB1, PA, NP; luciferase reporter) in 293T cells, RNP_Alaska; details: HEK-293T, 48 h
[2] = system: influenza A virus minigenome (PB2, PB1, PA, NP; luciferase reporter) in 293T cells, RNP_CAL; details: HEK-293T, 48 h, read-out: RNP_CAL_EC50
[3] = system: influenza A virus minigenome (PB2, PB1, PA, NP; luciferase reporter) in 293T cells, RNP_Hubei; details: HEK-293T, 48 h

CC(C)CC(=O)Oc1c2n(ncc1=O)[C@@H]([C@H](c1ccc(F)cc1)c1cccc(F)c1F)[C@H]1CCCN1C2=O [Example 93, (9aR,10S)-10-((R)-(2,3-difluorophenyl)(4-fluorophenyl)methyl)-3,5-dioxo-3,5,8,9,9a,10-hexahydro-7H-pyrrolo[1′,2′:4,5]pyrazino[1,2-b]pyridazin-4-yl 3-methylbutanoate]
EC50 [1]: < 100 nM
EC50 [2]: < 100 nM
EC50 [3]: < 100 nM

O=C1c2c(O)c(=O)cnn2[C@@H]([C@@H](c2ccccc2F)c2cccc(F)c2F)[C@H]2CCCN12 [Example 28, (9aR,10S)-10-((S)-(2,3-difluorophenyl)(2-fluorophenyl)methyl)-4-hydroxy-8,9,9a,10-tetrahydro-7H-pyrrolo[1′,2′:4,5]pyrazino[1,2-b]pyridazine-3,5-dione]
EC50 [1]: < 100 nM
EC50 [2]: < 100 nM
EC50 [3]: < 100 nM

CCOC(=O)OC(C)Oc1c2n(ncc1=O)[C@@H]([C@H](c1ccccc1)c1cccc(F)c1F)[C@H]1CCCN1C2=O (stereo partly drawn) [Example 56, 1-(((9aR,10S)-10-((R)-(2,3-difluorophenyl)(phenyl)methyl)-3,5-dioxo-3,5,8,9,9a,10-hexahydro-7H-pyrrolo[1′,2′:4,5]pyrazino[1,2-b]pyridazin-4-yl)oxy)ethyl ethyl carbonate]
EC50 [1]: 100 to 1000 nM
EC50 [2]: 100 to 1000 nM
EC50 [3]: < 100 nM

O=C(Oc1c2n(ncc1=O)[C@@H]([C@H](c1ccccc1)c1cccc(F)c1F)[C@H]1CCCN1C2=O)c1ccccc1 [Example 69, (9aR,10S)-10-((R)-(2,3-difluorophenyl)(phenyl)methyl)-3,5-dioxo-3,5,8,9,9a,10-hexahydro-7H-pyrrolo[1′,2′:4,5]pyrazino[1,2-b]pyridazin-4-yl benzoate]
EC50 [1]: < 100 nM
EC50 [2]: < 100 nM
EC50 [3]: < 100 nM

CC(C)(C)C(=O)Oc1c2n(ncc1=O)[C@@H]([C@H](c1ccccc1)c1cccc(F)c1F)[C@H]1CCCN1C2=O [Example 62, (9aR,10S)-10-((R)-(2,3-difluorophenyl)(phenyl)methyl)-3,5-dioxo-3,5,8,9,9a,10-hexahydro-7H-pyrrolo[1′,2′:4,5]pyrazino[1,2-b]pyridazin-4-yl pivalate]
EC50 [1]: < 100 nM
EC50 [2]: < 100 nM
EC50 [3]: < 100 nM

CC(C)(C)OC(=O)OCOc1c2n(ncc1=O)[C@@H]([C@H](c1ccc(F)cc1)c1cccc(F)c1F)[C@H]1CCCN1C2=O [Example 91, tert-butyl ((((9aR,10S)-10-((R)-(2,3-difluorophenyl)(4-fluorophenyl)methyl)-3,5-dioxo-3,5,8,9,9a,10-hexahydro-7H-pyrrolo[1′,2′:4,5]pyrazino[1,2-b]pyridazin-4-yl)oxy)methyl) carbonate]
EC50 [1]: < 100 nM
EC50 [3]: < 100 nM

COC(C)(C)C(=O)OCOc1c2n(ncc1=O)[C@@H]([C@H](c1ccccc1)c1cccc(F)c1F)[C@H]1CCCN1C2=O [Example 41, (((9aR,10S)-10-((R)-(2,3-difluorophenyl)(phenyl)methyl)-3,5-dioxo-3,5,8,9,9a,10-hexahydro-7H-pyrrolo[1′,2′:4,5]pyrazino[1,2-b]pyridazin-4-yl)oxy)methyl 2-methoxy-2-methylpropanoate]
EC50 [1]: < 100 nM
EC50 [3]: < 100 nM

CC(C)OC(=O)Oc1c2n(ncc1=O)[C@@H]([C@H](c1cccc(F)c1)c1cccc(F)c1F)[C@H]1CCCN1C2=O [Example 103, (9aR,10S)-10-((R)-(2,3-difluorophenyl)(3-fluorophenyl)methyl)-3,5-dioxo-3,5,8,9,9a,10-hexahydro-7H-pyrrolo[1′,2′:4,5]pyrazino[1,2-b]pyridazin-4-yl isopropyl carbonate]
EC50 [1]: < 100 nM
EC50 [3]: < 100 nM

COC(=O)Oc1c2n(ncc1=O)[C@@H]([C@H](c1ccccc1)c1cccc(F)c1F)[C@H]1CCCN1C2=O [Example 54, (9aR,10S)-10-((R)-(2,3-difluorophenyl)(phenyl)methyl)-3,5-dioxo-3,5,8,9,9a,10-hexahydro-7H-pyrrolo[1′,2′:4,5]pyrazino[1,2-b]pyridazin-4-yl methyl carbonate]
EC50 [1]: < 100 nM
EC50 [3]: < 100 nM

COCCOC(=O)OCOc1c2n(ncc1=O)[C@@H]([C@H](c1ccccc1)c1cccc(F)c1F)[C@H]1CCCN1C2=O [Example 46, (((9aR,10S)-10-((R)-(2,3-difluorophenyl)(phenyl)methyl)-3,5-dioxo-3,5,8,9,9a,10-hexahydro-7H-pyrrolo[1′,2′:4,5]pyrazino[1,2-b]pyridazin-4-yl)oxy)methyl (2-methoxyethyl) carbonate]
EC50 [1]: ≥ 1000 nM
EC50 [3]: ≥ 1000 nM

CC(C)(C)C(=O)Oc1c2n(ncc1=O)[C@@H]([C@H](c1cccc(F)c1)c1cccc(F)c1F)[C@H]1CCCN1C2=O [Example 111, (9aR,10S)-10-((R)-(2,3-difluorophenyl)(3-fluorophenyl)methyl)-3,5-dioxo-3,5,8,9,9a,10-hexahydro-7H-pyrrolo[1′,2′:4,5]pyrazino[1,2-b]pyridazin-4-yl pivalate]
EC50 [1]: < 100 nM
EC50 [3]: < 100 nM

CCN(C)C(=O)Oc1c2n(ncc1=O)[C@@H]([C@H](c1ccccc1)c1cccc(F)c1F)[C@H]1CCCN1C2=O [Example 47, (9aR,10S)-10-((R)-(2,3-difluorophenyl)(phenyl)methyl)-3,5-dioxo-3,5,8,9,9a,10-hexahydro-7H-pyrrolo[1′,2′:4,5]pyrazino[1,2-b]pyridazin-4-yl ethyl(methyl)carbamate]
EC50 [1]: ≥ 1000 nM
EC50 [3]: ≥ 1000 nM

O=C(Oc1c2n(ncc1=O)[C@@H]([C@H](c1ccccc1)c1cccc(F)c1F)[C@H]1CCCN1C2=O)N1CCOCC1 [Example 66, (9aR,10S)-10-((R)-(2,3-difluorophenyl)(phenyl)methyl)-3,5-dioxo-3,5,8,9,9a,10-hexahydro-7H-pyrrolo[1′,2′:4,5]pyrazino[1,2-b]pyridazin-4-yl morpholine-4-carboxylate]
EC50 [1]: ≥ 1000 nM
EC50 [3]: ≥ 1000 nM

CC(C)OC(=O)OCOc1c2n(ncc1=O)[C@@H]([C@H](c1ccc(F)cc1)c1cccc(F)c1F)[C@H]1CCCN1C2=O [Example 89, (((9aR,10S)-10-((R)-(2,3-difluorophenyl)(4-fluorophenyl)methyl)-3,5-dioxo-3,5,8,9,9a,10-hexahydro-7H-pyrrolo[1′,2′:4,5]pyrazino[1,2-b]pyridazin-4-yl)oxy)methyl isopropyl carbonate]
EC50 [1]: < 100 nM
EC50 [3]: < 100 nM

O=C(Oc1c2n(ncc1=O)[C@@H]([C@H](c1ccccc1)c1cccc(F)c1F)[C@H]1CCCN1C2=O)N1CCC(N2CCCCC2)CC1 [Example 65, (9aR,10S)-10-((R)-(2,3-difluorophenyl)(phenyl)methyl)-3,5-dioxo-3,5,8,9,9a,10-hexahydro-7H-pyrrolo[1′,2′:4,5]pyrazino[1,2-b]pyridazin-4-yl [1,4′-bipiperidine]-1′-carboxylate]
EC50 [1]: ≥ 1000 nM
EC50 [3]: ≥ 1000 nM

COc1c2n(ncc1=O)[C@@H]([C@H](c1ccc(F)cc1)c1cccc(F)c1F)[C@H]1CCCN1C2=O [Example 81, (9aR,10S)-10-((R)-(2,3-difluorophenyl)(4-fluorophenyl)methyl)-4-methoxy-8,9,9a,10-tetrahydro-7H-pyrrolo[1′,2′:4,5]pyrazino[1,2-b]pyridazine-3,5-dione]
EC50 [1]: ≥ 1000 nM
EC50 [3]: ≥ 1000 nM

CN(C)C(=O)OCOc1c2n(ncc1=O)[C@@H]([C@H](c1cccc(F)c1)c1cccc(F)c1F)[C@H]1CCCN1C2=O [Example 101, (((9aR,10S)-10-((R)-(2,3-difluorophenyl)(3-fluorophenyl)methyl)-3,5-dioxo-3,5,8,9,9a,10-hexahydro-7H-pyrrolo[1′,2′:4,5]pyrazino[1,2-b]pyridazin-4-yl)oxy)methyl dimethylcarbamate]
EC50 [1]: ≥ 1000 nM
EC50 [3]: 100 to 1000 nM

CN(C)C(=O)Oc1c2n(ncc1=O)[C@@H]([C@H](c1ccc(F)cc1)c1cccc(F)c1F)[C@H]1CCCN1C2=O [Example 87, (9aR,10S)-10-((R)-(2,3-difluorophenyl)(4-fluorophenyl)methyl)-3,5-dioxo-3,5,8,9,9a,10-hexahydro-7H-pyrrolo[1′,2′:4,5]pyrazino[1,2-b]pyridazin-4-yl dimethylcarbamate]
EC50 [1]: ≥ 1000 nM
EC50 [3]: ≥ 1000 nM

CC(C)(C)C(=O)OCOc1c2n(ncc1=O)[C@@H]([C@H](c1cccc(F)c1)c1cccc(F)c1F)[C@H]1CCCN1C2=O [Example 109, (((9aR,10S)-10-((R)-(2,3-difluorophenyl)(3-fluorophenyl)methyl)-3,5-dioxo-3,5,8,9,9a,10-hexahydro-7H-pyrrolo[1′,2′:4,5]pyrazino[1,2-b]pyridazin-4-yl)oxy)methyl pivalate]
EC50 [1]: < 100 nM
EC50 [3]: < 100 nM

COCCC(=O)OCOc1c2n(ncc1=O)[C@@H]([C@H](c1ccccc1)c1cccc(F)c1F)[C@H]1CCCN1C2=O [Example 64, (((9aR,10S)-10-((R)-(2,3-difluorophenyl)(phenyl)methyl)-3,5-dioxo-3,5,8,9,9a,10-hexahydro-7H-pyrrolo[1′,2′:4,5]pyrazino[1,2-b]pyridazin-4-yl)oxy)methyl 3-methoxypropanoate]
EC50 [1]: ≥ 1000 nM
EC50 [3]: ≥ 1000 nM

COc1c2n(ncc1=O)[C@@H]([C@H](c1ccccc1)c1cccc(F)c1F)[C@H]1CCCN1C2=O [Example 38, (9aR,10S)-10-((R)-(2,3-difluorophenyl)(phenyl)methyl)-4-methoxy-8,9,9a,10-tetrahydro-7H-pyrrolo[1′,2′:4,5]pyrazino[1,2-b]pyridazine-3,5-dione]
EC50 [1]: ≥ 1000 nM
EC50 [3]: ≥ 1000 nM

COC(C)(C)C(=O)Oc1c2n(ncc1=O)[C@@H]([C@H](c1ccc(F)cc1)c1cccc(F)c1F)[C@H]1CCCN1C2=O [Example 90, (9aR,10S)-10-((R)-(2,3-difluorophenyl)(4-fluorophenyl)methyl)-3,5-dioxo-3,5,8,9,9a,10-hexahydro-7H-pyrrolo[1′,2′:4,5]pyrazino[1,2-b]pyridazin-4-yl 2-methoxy-2-methylpropanoate]
EC50 [1]: < 100 nM
EC50 [3]: < 100 nM
